# Data from PubChem BioAssay (NCI).
# Where “and” joins values, the source holds several entries; their conditions need not be identical. Equal entries are not always repeated.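 48-hour exposure; five concentrations; linearly interpolated endpoints. GI50: concentration for 50% inhibition of growth. TGI: concentration producing complete growth inhibition.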
# Legend:
# Assay in all cases: NCI-60 cell line screen, 48 h
# [1] = system: SR leukemia
# [2] = system: MALME-3M melanoma
# [3] = system: BT-549 breast
# [4] = system: HCC-2998 colon
# [5] = system: SK-MEL-5 melanoma
# [6] = system: UO-31 renal
# [7] = system: SK-MEL-2 melanoma
# [8] = system: HS 578T breast
# [9] = system: SF-295 CNS
# [10] = system: M14 melanoma
Compound,GI50 [1],TGI [1],GI50 [2],TGI [2],GI50 [3],TGI [3],GI50 [4],TGI [4],GI50 [5],TGI [5],GI50 [6],TGI [6],GI50 [7],TGI [7],GI50 [8],TGI [8],GI50 [9],TGI [9],GI50 [10],TGI [10]
N#CSc1c[nH]c2ccc(/C=C/C(=O)/C=C(O)/C=C/c3ccc4[nH]cc(SC#N)c4c3)cc12,0.505 µM,6.14 µM,2.22 µM,5.91 µM,1.52 µM,8.04 µM,3.82 µM,16.6 µM,1.52 µM,3.48 µM,0.344 µM,1.66 µM,3.23 µM,12.3 µM,2.98 µM,35.2 µM,3.03 µM,13.3 µM,0.864 µM,3.58 µM
CC(C)(C)CNCCO,,> 100 µM,,> 100 µM,,> 100 µM,,> 100 µM,,> 100 µM,,> 100 µM,,> 100 µM,,> 100 µM,,> 100 µM,,> 100 µM
Clc1cccc(-c2cc(-c3ccc4c(c3)OCCO4)[nH]n2)c1,0.988 µM,98.3 µM,5.22 µM,47.5 µM,6.32 µM,47 µM,7.26 µM,51.4 µM,5.9 µM,39.1 µM,9.27 µM,43.9 µM,18.9 µM,74.9 µM,6.67 µM,63.3 µM,9.71 µM,45.1 µM,1.49 µM,35.3 µM
CCCCCOC(=O)c1c(C)[nH]c(/C=C2\N=C(c3ccc[nH]3)C=C2OC)c1C,< 0.0107 µM,0.0403 µM,0.32 µM,1.97 µM,0.0469 µM,1.1 µM,0.0285 µM,1.39 µM,0.0234 µM,0.0726 µM,0.021 µM,0.0689 µM,0.0222 µM,0.0681 µM,0.0211 µM,0.172 µM,0.0966 µM,0.544 µM,0.0204 µM,0.0481 µM
COc1ccc(CC(C)NCC(O)c2ccc(O)c(NC=O)c2)cc1 (centres undefined),,> 100 µM,,> 100 µM,,> 100 µM,,,,> 100 µM,,> 100 µM,,> 100 µM,,> 100 µM,,> 100 µM,,> 100 µM
O=c1oc2ccccc2cc1P(=O)(O)O,,> 100 µM,,> 100 µM,,> 100 µM,,> 100 µM,,> 100 µM,,,,> 100 µM,,> 100 µM,,> 100 µM,,> 100 µM
C=C(C)[C@@H]1CC[C@]2(C(=O)OC)CC[C@]3(C)[C@H](CC[C@@H]4[C@@](C)(CCc5nn[nH]n5)[C@H](C(=C)C)CC[C@]43C)[C@@H]12,11.4 µM,49.4 µM,16.3 µM,31.7 µM,33.2 µM,> 100 µM,15.8 µM,30.5 µM,11.4 µM,24.4 µM,10.9 µM,23 µM,16.7 µM,39.5 µM,19.8 µM,53.8 µM,13.6 µM,44.3 µM,27.5 µM,> 100 µM
CCCN1CCC(Oc2cc(Nc3nc(Nc4cccc(F)c4C(N)=O)c4cc[nH]c4n3)c(OC)cc2Cl)CC1,1.02 µM,6.52 µM,3.81 µM,8.4 µM,3.75 µM,7.36 µM,0.994 µM,3.84 µM,1.23 µM,2.67 µM,2.94 µM,8.93 µM,4.5 µM,8.32 µM,3.73 µM,10.6 µM,3.81 µM,8.53 µM,0.859 µM,2.88 µM
c1ccc2[nH]c(-c3ccc(Nc4nc(N5CCCC5)nc5[nH]ncc45)cc3)nc2c1,0.254 µM,0.87 µM,0.314 µM,1.3 µM,1.68 µM,3.47 µM,0.294 µM,0.826 µM,1.29 µM,2.56 µM,1.46 µM,3.54 µM,1.71 µM,3.37 µM,1.21 µM,4.26 µM,0.204 µM,0.477 µM,0.403 µM,1.62 µM
CCOc1ccc2nc3cc(N)ccc3c(N)c2c1,2.61 µM and 2.8 µM,8.36 µM and 8.48 µM,1.22 µM and 1.54 µM,3.23 µM and 3.95 µM,2.23 µM and 1.8 µM,8.28 µM and 4.91 µM,3.24 µM and 1.43 µM,13.9 µM and 4.72 µM,3.31 µM and 3.03 µM,13.3 µM and 12.8 µM,3.11 µM and 11.6 µM,27.7 µM and 62.8 µM,2.36 µM and 2.22 µM,6.19 µM and 5.86 µM,1.29 µM and 1.03 µM,9.46 µM and 4.83 µM,2.09 µM and 1.98 µM,11.9 µM and 11.4 µM,8.31 µM and 10.7 µM,26.3 µM and 23.4 µM
COc1cc2c(cc1OCCCCCOc1ccc(-c3nc4ccccc4s3)cc1)N=C[C@@H]1CCCN1C2=O,0.222 µM,1.43 µM,12.5 µM,37.9 µM,3.45 µM,16.4 µM,3.02 µM,9.06 µM,0.934 µM,3.88 µM,2.5 µM,13.4 µM,4.86 µM,16.2 µM,2.02 µM,7.68 µM,2.37 µM,> 100 µM,1.46 µM,9.08 µM
COCCn1c(Nc2ccc(C(=O)NO)cc2)nc2ccccc21,1.69 µM,> 100 µM,2.07 µM,9.02 µM,15.2 µM,67.9 µM,3.32 µM,12.6 µM,3.55 µM,12.9 µM,2.25 µM,17.1 µM,5.33 µM,50.3 µM,3.43 µM,34.3 µM,2.93 µM,16.3 µM,3.49 µM,14.9 µM
COC1C(OC(=O)/C=C/C=C/C=C/C=C/C(=O)O)CCC2(CO2)C1C1(C)OC1CC=C(C)C (centres undefined),0.22 µM,67.6 µM,0.45 µM,> 75.3 µM,0.268 µM,> 100 µM,0.231 µM,> 71.4 µM,0.271 µM,> 64.9 µM,,> 82.2 µM,,> 85.3 µM,,> 100 µM,0.193 µM,> 96.8 µM,,69.8 µM
